Results published in patent US6360743B1, “System for dispensing pharmaceutical active compounds” (AB Astra, priority 1992, dated 2002).

Legend:
[1] = generally regarded; cited from earlier work
[2] = Absolute systemic availability and lung deposition of inhaled budesonide (plasma LC-MS); format: in vivo, healthy subjects; conditions: for Cmax / Tmax: human, plasma, inhaled or intranasal, 1 mg, 1 mg inhaled; for absolute systemic availability (geometric mean): 1 mg as five inhalations of 200 micrograms, vs 0.5 mg intravenously; for amount deposited and absorbed in the lung (geometric mean, range): calculated assuming 13% availability of swallowed budesonide
Method: In order to determine the absolute systemic availability and the amount of budesonide deposited and absorbed in the lung after inhalation via TURBUHALER and via an MDI, 24 healthy subjects were given budesonide 1 mg as five inhalations of 200 micrograms each, via TURBUHALER inhaler or via MDI, and 0.5 mg intravenously, on separate study days. Budesonide levels were determined in plasma by a LC-MS method. The amount of budesonide absorbed in the lung was calculated on the assumption of an availability of swallowed budesonide of 13%. Furthermore, absorption in the lung was calculated in 13 of the subjects after inhalation with concomitant oral dosing of charcoal to prevent absorption of budesonide from the gastrointestinal track. There was good conformity between the two modes of calculation.

lung deposition from TURBUHALER relative to MDI ([2]; TURBUHALER versus MDI)	Cmax ([2]; via MDI) [nM]	Tmax ([2]; via MDI) [min]	Cmax ([2]; via TURBUHALER) [nM]	Tmax ([2]; via TURBUHALER) [min]	absolute systemic availability (geometric mean) ([2]; via MDI) [%]	amount deposited and absorbed in the lung (geometric mean, range) ([2]; via MDI)	absolute systemic availability (geometric mean) ([2]; via TURBUHALER) [%]	amount deposited and absorbed in the lung (geometric mean, range) ([2]; via TURBUHALER)	SMILES	dose regarded as equipotent to 0.25 mg of terbutaline sulphate [1] [mg]
									CC(C)(C)NCC(O)c1ccc(O)c(CO)c1 (stereo not shown) [salbutamol]	0.1
twice that from an MDI	2.3	30	3.6	18	28	15% (3%-47%)	38	32% (16%-59%)	CCCC1O[C@@H]2C[C@H]3[C@@H]4CCC5=CC(=O)C=C[C@]5(C)[C@H]4[C@@H](O)C[C@]3(C)[C@]2(C(=O)CO)O1 (stereo partly shown) [budesonide]	
